The text below walks through data of ChEMBL document CHEMBL1133806, “Synthesis and biological evaluation of novel bisindolylmaleimides that inhibit vascular endothelial cell proliferation” (Bioorg Med Chem Lett, 2001).

Type in all cases: functional, cell-based
In assay [1] the test system is DLD-1. The experiment in a line: Antiproliferative activity against human colon cancer cell line (DLD-1 cells) using MTT assay.
In assay [2] the test system is HUVEC. Kind of assay: Antiproliferative activity against human umbilical vein endothelial cells (HUVECs) using MTT assay.
The test system of assay [3] is LoVo. The experiment in a line: Antiproliferative activity against human colon cancer cell line (LoVo cells) using MTT assay.
Assay [4] can be described thus: Antiproliferative activity against burkit lymphoma cell line (ST-486 cells) using MTT assay. Conditions: Homo sapiens.

Some results are limits rather than exact numbers.

Regarding `CN(C)CCN1C(=O)C(c2c[nH]c3ccccc23)=C(c2cn(CCOCCO)c3ccccc23)C1=O`, the concentration for half-maximal inhibition (IC50) in assay [1] stood at 40 µM; in assay [2], 7 µM; in assay [3], 7 µM; in assay [4], 10 µM.
For the compound `CN(C)CCN1C(=O)C(c2c[nH]c3ccccc23)=C(c2c[nH]c3ccccc23)C1=O`, the IC50 in assay [1] is over 100 µM; in assay [2], 30 µM; in assay [3] it was over 100 µM; in assay [4], over 100 µM.
As to `O=C1NC(=O)C(c2cn(CCOCCO)c3ccccc23)=C1c1c[nH]c2ccccc12`, the IC50 in assay [1] amounted to 6 µM; in assay [2], 2 µM; in assay [3], 20 µM; in assay [4] it was 2 µM.
In the case of `CN(C)CCOCCn1cc(C2=C(c3c[nH]c4ccccc34)C(=O)NC2=O)c2ccccc21`, the IC50 in assay [1] was over 100 µM; in assay [2], 20 µM; in assay [3], over 100 µM; in assay [4] it was 10 µM.
Take `CN(C)CCOCCn1cc(C2=C(c3c[nH]c4ccccc34)C(=O)N(CCN(C)C)C2=O)c2ccccc21`: the IC50 in assay [1] was over 100 µM; in assay [2], 25 µM; in assay [3] it was over 100 µM; in assay [4], 30 µM.
As for `CNCCOCCn1cc(C2=C(c3c[nH]c4ccccc34)C(=O)N(CCN(C)C)C2=O)c2ccccc21`, the IC50 in assay [1] was over 100 µM; in assay [2], 50 µM; in assay [3], over 100 µM; in assay [4] it was 20 µM.
As to `CN[C@@H]1C[C@H]2O[C@@](C)([C@@H]1OC)n1c3ccccc3c3c4c(c5c6ccccc6n2c5c31)C(=O)NC4` [STAUROSPORINE], the half-maximal inhibitory concentration (IC50) in assay [1] was 0.009 µM; in assay [2], 0.004 µM; in assay [4], 0.007 µM.
With `Cc1ccc(C(=O)Nc2ccc(S(=O)(=O)O)c3cc(S(=O)(=O)O)cc(S(=O)(=O)O)c23)cc1NC(=O)c1cccc(NC(=O)Nc2cccc(C(=O)Nc3cc(C(=O)Nc4ccc(S(=O)(=O)O)c5cc(S(=O)(=O)O)cc(S(=O)(=O)O)c45)ccc3C)c2)c1` [SURAMIN], the IC50 in assay [2] came out at 500 µM.
